Patent publication US20150086695A1, “SWEETENER COMPOSITION, SWEETENER PRODUCTS, AND METHODS OF SWEETENING” (Almendra Americas, LLC, priority 2013, published 2015)

Test system: trained expert panelists
Experiment: Sensory panel scaling of taste attributes on 0-15 scales (formulation study ballot)
Type: in vivo, human
Details: 0-15 scale; for Bitterness Intensity @ 2 Min (Bitter2) / Numbing/Tingling Sensation @ 2 Min (Numb/Ting2) / Sweetness Intensity @ 2 Min (Sweet2): at 2 minutes; for Bitterness Intensity @ 2 Min (Bitter2) / Numbing/Tingling Sensation @ 2 Min (Numb/Ting2) / Sweetness Intensity @ 2 Min (Sweet2) / Astringency Intensity (Astring) / Bitterness Intensity (IB) / Mouthfeel (Mfeel) / Numbing/Tingling Sensation (Numb/Ting) / Soapiness (Soap) / Sweetness Intensity Initial (Sweetness) / Sweetness Onset/Appearance Time (Onset): defined calibration rating, Sucrose Reference 10.0% sucrose, REB A Reference 500 PPM, both in 0.1% citric acid
Text: Tongue numbing can also manifest itself as “tongue tingling”. These non-sugar-like characteristics appear inter-related in the sense that formulation as well as temperature changes affect the perception of several of them. Another taste characteristic of steviol glycosides, particularly those with relatively low levels of REB A, is soapiness, a characteristic that results from the surfactant portion of the molecule. To quantify all of these sensory effects by existing methods would require an expert sensory panel and at least 4 different sensory tests (i.e., C/R Function Determination, Flavor Profile Analysis, Temporal Profile Analysis and Adaptation Profile Analysis). However, to address a need for rapid screening of HP sweetener formulations, Prakash et al., described a scaling technique to quantify all of these sensory percepts in a single test (reference shown below under the table). An improvement of this methodology is described below.
Prior to the evaluation of test samples, all panelists must first calibrate themselves on Sucrose and Reference Samples (e.g., REB A) to ensure that they are able to appropriately scale taste attributes of interest. These Reference Samples are to be available in ample quantities for all experimental sessions. The Sucrose Reference is 10.0% sucrose acidified with 0.1% citric acid. For illustration purposes, an example of a Reference Sample can be a REB A Reference Sample that has 500 PPM REB A in the same system for general formula optimization studies.
Take a ca. 15 mL sample of the Sucrose Reference into the mouth swishing it around vigorously and note all attributes of the sensory experience. After ca. 10 sec, expectorate the sample and immediately rinse vigorously with ca. 15 mL of water, expectorating the rinse water. Over the next 2 minutes, while minimizing tongue movement in the mouth, pay attention to any rebound or intensification in perceived sweetness, bitterness, or numbing/tingling sensation. The intensity of the attribute perceived at 2 minutes is an estimate of its lingering tendency. Upon completion of calibration with the Sucrose Reference, calibration with the REB A Reference is carried out in the same way. The attribute ratings for the Sucrose and REB A References, all on 0-15 scales, are defined as follows: […]
After completion of reference sample calibrations, as well as in follow up of all sample tests, rinse the mouth vigorously with ca. 15 mL portions of the Sucrose Reference solution and two ca. 15 mL portions of water in effort to get the sensory system back to baseline. […]

Compound | Bitterness Intensity @ 2 Min (Bitter2) | Numbing/Tingling Sensation @ 2 Min (Numb/Ting2) | Sweetness Intensity @ 2 Min (Sweet2) | Astringency Intensity (Astring) | Bitterness Intensity (IB) | Mouthfeel (Mfeel) | Numbing/Tingling Sensation (Numb/Ting) | Soapiness (Soap) | Sweetness Intensity Initial (Sweetness) | Sweetness Onset/Appearance Time (Onset) | scores on all lingering attributes (Example 9, REBA100 500 mg/L in 0.1% citric acid, two panelists)
C=C1C[C@@]23CC[C@H]4[C@@](C)(CCC[C@@]4(C)C(=O)O[C@@H]4O[C@H](CO)[C@@H](O)[C@H](O)[C@H]4O)[C@@H]2CC[C@]1(O[C@@H]1O[C@H](CO)[C@@H](O)[C@H](O[C@@H]2O[C@H](CO)[C@@H](O)[C@H](O)[C@H]2O)[C@H]1O[C@@H]1O[C@H](CO)[C@@H](O)[C@H](O)[C@H]1O)C3 [REB A100, rebaudioside A] | 2 | 2 | 3 | 0 | 3 | 0 | 0 | 1 | 10 | 3 | –
OC[C@H]1O[C@@](CO)(O[C@H]2O[C@H](CO)[C@@H](O)[C@H](O)[C@H]2O)[C@@H](O)[C@@H]1O [Sucrose, sucrose] | 0 | 0 | 0 | 0 | 0 | 10 | 0 | 0 | 10 | 0 | 0
